Experimental data reported in patent US20240165152A1, “COMPOSITIONS AND METHODS FOR ACTIVATING NK CELLS” (The Regents of the University of California, priority 2017, published 2024).

Tests used:
OSCSCs = experiment: Cell death (PI staining) of OSCSCs differentiated with NK supernatants after chemotherapeutic drugs; format: cell-based, human
Description: FIG. 67A-FIG. 67B show CDDP or Paclitaxel with and without NAC induce significant cell death in OSCSCs differentiated with NK-supernatants and not in poorly-differentiated tumors. Highly purified NK cells were treated with the combination of IL-2 (1000 U/mL) and anti-CD16 mAb ([…]) for 18 hours, after which the NK supernatants were added to OSCSCs in the presence of anti-TNF-a (1:100) and anti-IFN-g (1:100) for a period of 5 days. Thereafter, OSCSCs were detached and treated with/without Cisplatin for 18-24 hours. The viability of OSCSCs was then determined using PI staining and flow cytometric analysis. One of 3 representative experiments is shown in this figure (FIG. 67A). OSCSCs were treated with the supernatants from NK cells as described in FIG. 67A. Afterwards, tumors were detached and treated with/without NAC ([…]) for 24 hours, followed by treatment with Paclitaxel for 18-24 hours. OSCSCs viability was determined by PI staining and flow cytometric analysis. One of 3 representative experiments is shown in this figure (FIG. 67B).
Staining was performed by labeling the cells with antibodies or propidium iodide, as described previously. The cells were washed twice with ice-cold PBS containing 1% BSA. Predetermined optimal concentrations of specific human monoclonal antibodies were added to 1×10^4 cells in 50 pl of cold-BSA and cells were incubated on ice for 30 min. Thereafter cells were washed in cold PBS-BSA and brought to 500 pl with PBS-BSA. For cell death assay 1×10^4 cells in 50 pl of cold-BSA were stained with 8 µg/ml propidium iodide and cells were incubated on ice for 10 min, and brought to 500 pl with PBS-BSA. Flow cytometry analysis was performed using Beckman 485 Coulter Epics XL cytometer (Brea, CA) and results were analyzed in FlowJo vX software (Ashland, OR).
NK cells were treated with a combination of anti-CD16 monoclonal antibody (3 pg/mL) and IL-2 (1,000 U/mL) for 18 hours before supernatants were removed and used for differentiation experiments. The amounts of IFN-y produced by activated NK cells were measured with IFN-γ ELISA (Biolegend, CA, USA). […]

OSCCs = experiment: Cell death of OSCCs after chemotherapeutic drugs; format: cell-based, human; conditions: patient-derived differentiated oral tumor

Row | Structure (SMILES) | cell death of OSCSCs differentiated with NK supernatants (OSCSCs) | cell death of OSCCs (OSCCs)
1 | CC(=O)N[C@@H](CS)C(=O)O [NAC] | significantly increased | 
2 | CC(=O)O[C@H]1C(=O)[C@@]2(C)[C@H]([C@H](OC(=O)c3ccccc3)[C@]3(O)C[C@H](OC(=O)[C@H](O)[C@@H](NC(=O)c4ccccc4)c4ccccc4)C(C)=C1C3(C)C)[C@]1(OC(C)=O)CO[C@@H]1C[C@@H]2O [paclitaxel] | higher cell death | 
3 | [NH2][Pt]([NH2])([Cl])[Cl] [CDDP, Cisplatin] | significant susceptibility | higher cell death
